No end group written: not given here. *: point of attachment. FITC = O=C1OC2(c3ccc(O)cc3Oc3cc(O)ccc32)c2ccc(NC(=S)*)cc21
How the values were obtained:
[1] = target: T1, KLC2^TPR-myc (Mus musculus, UniProt O88448); test: Fluorescence anisotropy-based binding competition against FITC-LFP motif peptide; design: species or system murine; settings: FITC-LFP peptide 300 nM, KLC2^TPR-myc 21 μM, Trp-JIP3^LZ two independent experiments, CSTN-WD1 one experiment
T1 construct: comprised murine KLC2 residues 191-480; His6-SUMO (N, cleaved yes); made in house; host or cells: E. coli BL21(DE3) Rosetta
Excerpt: Kinesin-1 activation by JIP3 requires JIP3^LZ binding to KLC^TPR ([Watt et al., 2015]). How does JIP3^LZ binding to the KLC^TPR relieve KLC regulation of the kinesin-1 molecule? Tryptophan-acidic cargoes activate kinesin-1 by releasing the KLC LFP motif from the KLC^TPR ([Yip et al., 2016]). […] We therefore wondered whether JIP3^LZ binding to the KLC2^TPR allosterically regulates interactions between KLC2^TPR and the LFP motif. We investigated this using an in vitro, fluorescence anisotropy-based binding competition assay with purified proteins and peptides ([Yip et al., 2016]). […] Thus, JIP3 activates kinesin-1 by a different mechanism to tryptophan-acidic cargoes.
The binding affinity between the FITC-labelled LFP-motif peptide and the KLC2^TPR-myc was measured essentially as described previously ([Yip et al., 2016]). FITC-labelled LFP motif peptide (300 nM) was incubated with 2-fold dilutions of KLC2^TPR-myc in assay buffer (0.1 M NaCl, 25 mM HEPES, 5 mM MgCl2, 1 mM TCEP, final pH 7.5) in triplicate in 384-well plates, for 1 hour at room temperature. Fluorescence measurements were recorded on a TecanSpark plate reader at excitation and emission wavelengths of 488 nm and 535 nm respectively. Fluorescence anisotropy values were calculated at each KLC2^TPR-myc concentration and the data were fitted with a fixed-slope dose response curve in Prism (GraphPad). […]

[2] = system: wild-type KLC2^TPR-myc; test: ITC of Trp-JIP3^LZ or FITC-CSTN-WD2 peptide into wild-type KLC2^TPR-myc; assay type: binding, murine; settings: n = 2
Description: (§1) The Trp-JIP3^LZ protein used for CD and ITC experiments was prepared as described above for the JIP3^LZ, with the following modifications. Following 3C cleavage, contaminating GST3C was removed by incubation of the eluate with fresh, pre-equilibrated glutathione sepharose 4B resin for 2 hours at room temperature. The Trp-JIP3^LZ was then further purified by size exclusion chromatography using a Superdex 75 16/600 column equilibrated in 100 mM NaCl, 25 mM HEPES, 1 mM TCEP (final pH 7.5). Wild-type/mutant KLC2^TPR-myc samples used for CD and ITC experiments were prepared as described above the KLC2^TPR used in crystallographic studies. The Trp-JIP3^LZ and KLC2^TPR-myc samples used in the fluorescence anisotropy-based binding competition assays were prepared as for those used in the CD and ITC studies, but the final size-exclusion step was performed in 100 mM NaCl, 25 mM HEPES, 5mM MgCl2, 1 mM TCEP (final pH 7.5).
To study binding of the Trp-JIP3^LZ and FITC-CSTN-WD2 peptide to wild-type and mutant KLC2^TPR-myc, the recombinant proteins were prepared by size exclusion chromatography in 0.1 M NaCl, 25 mM HEPES, 1 mM TCEP, final pH 7.5. Wild-type or mutant KLC2^TPR-myc at 44-50 μM were placed in the cell. The Trp-JIP3^LZ was used as the titrant at dimer concentrations of 297-330 μM. The FITC-CSTN-WD2 peptide was used as the titrant at a concentration of 380 μM. The peptide concentration was determined by measuring the absorbance at 483 nm and using a molar extinction coefficient of 68,000 M^-1cm^-1. ITC experiments were performed as described above with injections spaced 120-150 s apart. Thermograms were integrated and corrected for heats of dilution using NITPIC (http://biophysics.swmed.edu/MBR/software.html). The resulting isotherms were analysed in SEDPHAT. Data for the Trp-JIP3^LZ as titrant were fitted with the A + B + B → AB + B → ABB model, whilst binding of the FITC-CSTN-WD2 peptide was analysed using the A + B → AB model. Between 2 and 3 experiments were performed for each titrand/titrant pair. For each titrand/titrant pair, the isotherms from the experiments were globally fitted with the relevant model. […] During fitting, the FITC-CSTN-WD2 peptide concentrations consistently refined to values around 30% greater than the measured value of 380 μM, with Napp values around 0.7 (Table S2). We ascribe this to an under-quantification of the FITC-CSTN-WD2 peptide concentration since the peptide contains a single tryptophan-acidic motif, and the concentration values for experiments with Trp-JIP3^LZ as ligand refined close to their measured values.

[3] = system: KLC2^TPR-myc Tyr^208Ala (Y208A); test: ITC of FITC-CSTN-WD2 peptide into Y208A KLC2^TPR-myc; assay type: binding, murine; settings: n = 2
Excerpt: (§2) The KLC2^TPR construct used in this work comprised murine KLC2 residues 191-480, which is similar to those used in previous studies ([Nguyen et al., 2017], [Zhu et al., 2012]) but with a slightly longer N-terminal region to include residues 191-194, which are very highly conserved in Bilaterian KLCs. To construct the pMW-His6-SUMO-KLC2^TPR vector, the sequence encoding KLC2^TPR (residues 191-480) was amplified by PCR from a murine template ([Dodding et al., 2011]) and cloned into the NotI/EcoRI sites of pMW his-SUMO. The His6-SUMO- KLC2^TPR-myc vectors were constructed likewise, but using a reverse primer sequence encoding the KLC^TPR C-terminal region up to residue 480, a BglII site, and an in-frame myc-tag sequence, thus fusing the amino acid sequence […] to the KLC2^TPR C-terminus. KLC2^TPR-myc mutants (Thr^200Asp, Tyr^208Ala, Gln^223Lys and Arg^312Glu) were generated by overlap PCR.
as §1, with “Wild-type/mutant KLC2^TPR-myc samples used for CD and ITC experiments were prepared as described above the KLC2^TPR used in crystallographic studies.” left out
(§3) To study binding of the Trp-JIP3^LZ and FITC-CSTN-WD2 peptide to wild-type and mutant KLC2^TPR-myc, the recombinant proteins were prepared by size exclusion chromatography in 0.1 M NaCl, 25 mM HEPES, 1 mM TCEP, final pH 7.5. […] The peptide concentration was determined by measuring the absorbance at 483 nm and using a molar extinction coefficient of 68,000 M^-1cm^-1. […] The resulting isotherms were analysed in SEDPHAT. Data for the Trp-JIP3^LZ as titrant were fitted with the A + B + B → AB + B → ABB model, whilst binding of the FITC-CSTN-WD2 peptide was analysed using the A + B → AB model. […] During fitting, the FITC-CSTN-WD2 peptide concentrations consistently refined to values around 30% greater than the measured value of 380 μM, with Napp values around 0.7 (Table S2). We ascribe this to an under-quantification of the FITC-CSTN-WD2 peptide concentration since the peptide contains a single tryptophan-acidic motif, and the concentration values for experiments with Trp-JIP3^LZ as ligand refined close to their measured values.

[4] = system: KLC2^TPR-myc Thr^200Asp (T200D); test: ITC of FITC-CSTN-WD2 peptide into T200D KLC2^TPR-myc; assay type: binding, murine; settings: 25°C, 0.1 M NaCl, n = 3
Excerpt: as §2
The Trp-JIP3^LZ protein used for CD and ITC experiments was prepared as described above for the JIP3^LZ, with the following modifications. […] The Trp-JIP3^LZ and KLC2^TPR-myc samples used in the fluorescence anisotropy-based binding competition assays were prepared as for those used in the CD and ITC studies, but the final size-exclusion step was performed in 100 mM NaCl, 25 mM HEPES, 5mM MgCl2, 1 mM TCEP (final pH 7.5).
as §3, with “We ascribe this to an under-quantification of the FITC-CSTN-WD2 peptide concentration since the peptide contains a single tryptophan-acidic motif, and the concentration values for experiments with Trp-JIP3^LZ as ligand refined close to their measured values.” left out

[5] = system: KLC2 L220Y mutant; test: ITC of FITC-CSTN-WD2 peptide into L220Y KLC2^TPR-myc; assay type: binding, murine; settings: 25°C, 0.1 M NaCl, n = 2
Description: as §1
as §3, with “7.5. Wild-type or mutant KLC2^TPR-myc at 44-50 μM were placed in the cell. The Trp-JIP3^LZ was used as the titrant at dimer concentrations of 297-330 μM.” for “7.5.”

[6] = system: wild-type and mutant KLC2^TPR-myc; test: ITC with wild-type and/or TPR1-mutant KLC2^TPR-myc (collective statements); assay type: binding, murine
Description: as §1
To study binding of the Trp-JIP3^LZ and FITC-CSTN-WD2 peptide to wild-type and mutant KLC2^TPR-myc, the recombinant proteins were prepared by size exclusion chromatography in 0.1 M NaCl, 25 mM HEPES, 1 mM TCEP, final pH 7.5. […] The peptide concentration was determined by measuring the absorbance at 483 nm and using a molar extinction coefficient of 68,000 M^-1cm^-1. […] The resulting isotherms were analysed in SEDPHAT. […]

[7] = FITC-CSTN-WD2, 25°C, 0.1 M NaCl, pH 7.5, global fit
[8] = 25°C, 0.1 M NaCl, pH 7.5, global fit
[9] = 25 mM HEPES, 1 mM TCEP, pH 7.5, A + B → AB model, global fit

T1 sequence (O88448 191-480): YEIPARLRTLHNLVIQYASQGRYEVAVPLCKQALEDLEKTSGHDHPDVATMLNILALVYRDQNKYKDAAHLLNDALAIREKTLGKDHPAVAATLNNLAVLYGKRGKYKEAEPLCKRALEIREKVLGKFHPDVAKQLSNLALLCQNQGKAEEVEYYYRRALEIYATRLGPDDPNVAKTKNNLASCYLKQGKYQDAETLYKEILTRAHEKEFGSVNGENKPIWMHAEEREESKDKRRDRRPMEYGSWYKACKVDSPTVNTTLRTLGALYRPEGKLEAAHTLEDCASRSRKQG

Substance | effect on binding of KLC2^TPR-myc to FITC-labeled LFP motif peptide [1] | K, macroscopic association constant ([2]; FITC-CSTN-WD2, 25°C, 0.1 M NaCl, 25 mM HEPES, 1 mM TCEP, pH 7.5, A + B → AB model, global fit) [µM⁻¹] | -TΔS [2, 7] [kcal/mol] | ΔH [2, 7] [kcal/mol] | Napp, apparent binding stoichiometry ([2]; FITC-CSTN-WD2, mean ± standard deviation) | K, macroscopic association constant ([3]; 25°C, 0.1 M NaCl, 25 mM HEPES, 1 mM TCEP, pH 7.5, A + B → AB model, global fit) [µM⁻¹] | -TΔS [3, 8] [kcal/mol] | ΔH [3, 8] [kcal/mol] | Napp, apparent binding stoichiometry ([3]; mean ± standard deviation) | K, macroscopic association constant [4, 9] [µM⁻¹] | -TΔS ([4]; pH 7.5, global fit) [kcal/mol] | ΔH ([4]; pH 7.5, global fit) [kcal/mol] | K, macroscopic association constant [5, 9] [µM⁻¹] | -TΔS ([5]; pH 7.5, global fit) [kcal/mol] | ΔH ([5]; pH 7.5, global fit) [kcal/mol] | Napp values ([6]; FITC-CSTN-WD2, wild-type and mutant KLC2^TPR-myc, ascribed to under-quantification of the peptide concentration) | effect of the three TPR1 mutations on binding ([6]; all three mutations in TPR1 of KLC2^TPR-myc, ITC)
Ac-GKENEMDWDDSALTITVN [CSTN-WD1] | blocked binding | – | – | – | – | – | – | – | – | – | – | – | – | – | – | – | –
{FITC}-TRQLEWDDSTL-OH [FITC-CSTN-WD2, FITC-labeled tryptophan-acidic calsyntenin-1 peptide] | – | 0.820 | -3.762 | -4.305 | 0.67 ± 0.08 | 0.541 | -4.463 | -3.358 | 0.67 ± 0.07 | 0.845 | -3.911 | -4.174 | 0.739 | -4.104 | -3.902 | around 0.7 | only minor effects on binding

From publication PMC6224480, “Insights into Kinesin-1 Activation from the Crystal Structure of KLC2 Bound to JIP3” (Structure(London, England:1993), 2018)
